Assay results reported in patent US9512144B2, “Imidazothiazole sufonamides as nematicides” (BAYER CROPSCIENCE AKTIENGESELLSCHAFT, priority 2013, dated 2016).

tested on: Meloidogyne incognita; assay: Meloidogyne incognita test (MELGIN): sand, salad seeds, gall formation after 14 days; format: in vivo; conditions: application rate 20 ppm, salad seedlings in sand
Method: Solvent: 125.0 parts by weight of acetone To produce a suitable preparation of active compound, 1 part by weight of active compound is mixed with the stated amount of solvent, and the concentrate is diluted with water to the desired concentration. Vessels are filled with sand, a solution of the active ingredient, a suspension containing eggs and larvae of the southern root-knot nematode (Meloidogyne incognita) and salad seeds. The salad seeds germinate and the seedlings grow. Galls develop in the roots. After 14 days the nematicidal activity is determined on the basis of the percentage of gall formation. 100% means that no galls were found; 0% means that the number of galls found on the roots of the treated plants was equal to that in untreated control plants.

Compound	nematicidal activity on the basis of the percentage of gall formation (100% = no galls)
COc1ccc(Cl)c(S(=O)(=O)NC(=O)c2nc3sc(C(F)(F)F)cn3c2I)c1 [Example I-3-6]	100%
Cc1c(C(F)(F)F)sc2nc(C(=O)NS(=O)(=O)c3cccc(Cl)c3)cn12 [Example I-1-155]	100%
Cc1c(C(F)(F)C(F)(F)F)sc2nc(C(=O)NS(=O)(=O)c3cccc(Cl)c3)cn12 [Example I-1-250]	90%
O=C(NS(=O)(=O)c1ccc(Cl)cc1Cl)c1cn2cc(C(F)(F)C(F)(F)F)sc2n1 [Example I-1-224]	100%
COc1ccccc1S(=O)(=O)NC(=O)c1cn2cc(C(F)(F)C(F)(F)F)sc2n1 [Example I-1-248]	100%
Cc1ccc(C)c(S(=O)(=O)NC(=O)c2cn3c(C(F)(F)F)csc3n2)c1 [Example I-1-270]	100%
O=C(NS(=O)(=O)c1cccc(Cl)c1)c1cn2cc(Cl)sc2n1 [Example I-1-50]	100%
O=C(NS(=O)(=O)c1cc(C(F)(F)F)ccc1Cl)c1cn2cc(Cl)sc2n1 [Example I-1-21]	100%
O=C(NS(=O)(=O)c1ccc(Cl)cc1Cl)c1cn2cc(C(F)(F)F)sc2n1 [Example I-1-279]	90%
COc1ccc(Cl)c(S(=O)(=O)NC(=O)c2cn3c(C(F)(F)F)csc3n2)c1 [Example I-1-29]	90%
O=C(NS(=O)(=O)c1cc(Cl)ccc1Cl)c1cn2c(C(F)(F)F)csc2n1 [Example I-1-31]	100%
O=C(NS(=O)(=O)c1c(F)cccc1F)c1cn2cc(Cl)sc2n1 [Example I-1-20]	100%
Cc1ccc(Cn2cccn2)cc1S(=O)(=O)NC(=O)c1cn2cc(C(F)(F)F)sc2n1 [Example I-1-288]	90%
O=C(NS(=O)(=O)c1cc(Cl)ccc1Cl)c1cn2cc(C(F)(F)C(F)(F)F)sc2n1 [Example I-1-145]	100%
CC(C)(C)c1cn2cc(C(=O)NS(=O)(=O)c3ccccc3Cl)nc2s1 [Example I-1-16]	100%
COc1ccc(Cl)c(S(=O)(=O)NC(=O)c2cn3cc(SC)sc3n2)c1 [Example I-1-299]	90%
O=C(NS(=O)(=O)c1ccccc1F)c1cn2cc(C(F)(F)F)sc2n1 [Example I-1-212]	100%
Cc1ccc(C)c(S(=O)(=O)NC(=O)c2cn3cc(Cl)sc3n2)c1 [Example I-1-22]	100%
Cc1ccc(Cl)cc1S(=O)(=O)NC(=O)c1cn2c(C)c(C(F)(F)F)sc2n1 [Example I-1-290]	100%
CSc1cn2cc(C(=O)NS(=O)(=O)c3c(Cl)cccc3Cl)nc2s1 [Example I-1-300]	100%

Compound	nematicidal activity on the basis of the percentage of gall formation (100% = no galls)
Cc1ccc(Cn2cccn2)cc1S(=O)(=O)NC(=O)c1cn2cc(C(F)(F)C(F)(F)F)sc2n1 [Example I-1-295]	90%
O=C(NS(=O)(=O)c1ccccc1Cl)c1nc2sc(C(F)(F)F)cn2c1Br [Example I-3-1]	100%
CC(C)(C)c1cn2cc(C(=O)NS(=O)(=O)c3cc(Cl)ccc3Cl)nc2s1 [Example I-1-15]	100%
CC(C)(C)c1cn2cc(C(=O)NS(=O)(=O)c3c(Cl)cccc3Cl)nc2s1 [Example I-1-13]	100%
CC(=O)c1ccc(Cl)c(S(=O)(=O)NC(=O)c2cn3cc(C(F)(F)F)sc3n2)c1 [Example I-1-301]	100%
Cc1c(C(F)(F)F)sc2nc(C(=O)NS(=O)(=O)c3ccc(Cl)cc3)cn12 [Example I-1-156]	90%
O=C(NS(=O)(=O)c1cc(Cl)ccc1Cl)c1cn2cc(Cl)sc2n1 [Example I-1-18]	90%
Cc1ccc(OC(F)F)cc1S(=O)(=O)NC(=O)c1cn2cc(C(F)(F)F)sc2n1 [Example I-1-7]	90%
CSc1cn2cc(C(=O)NS(=O)(=O)c3ccccc3Cl)nc2s1 [Example I-1-298]	100%
O=C(NS(=O)(=O)c1c(Cl)cccc1Cl)c1cn2cc(Cl)sc2n1 [Example I-1-43]	100%
O=C(NS(=O)(=O)c1cccc(Cl)c1)c1cn2cc(C(F)(F)F)sc2n1 [Example I-1-272]	90%
N#Cc1ccc(Cl)c(S(=O)(=O)NC(=O)c2cn3cc(C(F)(F)F)sc3n2)c1 [Example I-1-310]	90%
CCCOc1ccc(Cl)c(S(=O)(=O)NC(=O)c2cn3cc(C(F)(F)C(F)(F)F)sc3n2)c1 [Example I-1-238]	100%
COc1ccc(Cl)c(S(=O)(=O)NC(=O)c2cn3cc(Br)sc3n2)c1 [Example I-1-60]	100%
O=C(NS(=O)(=O)c1ccccc1Cl)c1cn2nc(C(F)(F)F)sc2n1 [Example I-1-202]	90%
O=C(NS(=O)(=O)c1ccccc1Cl)c1nc2sc(C(F)(F)F)cn2c1Cl [Example I-3-3]	100%
O=C(NS(=O)(=O)c1cc(Cn2cccn2)ccc1Cl)c1cn2cc(C(F)(F)C(F)(F)F)sc2n1 [Example I-1-292]	100%
COc1ccc(Cl)c(S(=O)(=O)NC(=O)c2cn3cc(Cl)sc3n2)c1 [Example I-1-19]	100%
O=C(NS(=O)(=O)c1c(F)cccc1F)c1cn2cc(C(F)(F)F)sc2n1 [Example I-1-11]	100%
O=C(NS(=O)(=O)c1ccc(Cl)cc1)c1cn2cc(Cl)sc2n1 [Example I-1-51]	100%

Compound	nematicidal activity on the basis of the percentage of gall formation (100% = no galls)
CSc1ccc(Cl)c(S(=O)(=O)NC(=O)c2cn3cc(C(F)(F)F)sc3n2)c1 [Example I-1-308]	100%
O=C(NS(=O)(=O)c1ccccc1-c1ccccc1)c1cn2cc(C(F)(F)C(F)(F)F)sc2n1 [Example I-1-235]	100%
CCc1ccc(CC)c(S(=O)(=O)NC(=O)c2cn3cc(C(F)(F)F)sc3n2)c1 [Example I-1-305]	100%
O=C(NS(=O)(=O)c1cccc(Cl)c1)c1cn2cc(C(F)(F)C(F)(F)F)sc2n1 [Example I-1-143]	90%
Cc1cc(S(=O)(=O)NC(=O)c2cn3cc(Cl)sc3n2)c(C)cc1C#N [Example I-1-45]	100%
COc1ccc(Cl)c(S(=O)(=O)NC(=O)c2cn3cc(C(C)(C)C)sc3n2)c1 [Example I-1-23]	100%
O=C(NS(=O)(=O)c1cc(Br)ccc1Br)c1cn2cc(C(F)(F)F)sc2n1 [Example I-1-312]	100%
Cc1ccc(C(C)(C)C)cc1S(=O)(=O)NC(=O)c1cn2cc(C(F)(F)C(F)(F)F)sc2n1 [Example I-1-233]	100%
CSc1cn2cc(C(=O)NS(=O)(=O)c3cc(C(F)(F)F)ccc3Cl)nc2s1 [Example I-1-296]	100%
Cc1cc(S(=O)(=O)NC(=O)c2cn3cc(C(F)(F)F)sc3n2)c(C)cc1Br [Example I-1-14]	100%
CSc1cn2cc(C(=O)NS(=O)(=O)c3cc(Cl)ccc3Cl)nc2s1 [Example I-1-297]	90%
COc1ccc(Cl)c(S(=O)(=O)NC(=O)c2nc3sc(C(F)(F)F)cn3c2Cl)c1 [Example I-3-4]	100%
O=C(NS(=O)(=O)c1ccc(Br)c(Cn2cccn2)c1)c1cn2cc(C(F)(F)F)sc2n1 [Example I-1-275]	90%
O=C(NS(=O)(=O)c1ccccc1Cl)c1nc2sc(C(F)(F)F)cn2c1I [Example I-3-5]	100%
CCc1ccc(Cl)cc1S(=O)(=O)NC(=O)c1cn2cc(C(F)(F)F)sc2n1 [Example I-1-309]	100%
O=C(NS(=O)(=O)c1ccccc1Cl)c1cn2cc(Cl)sc2n1 [Example I-1-17]	100%
COc1ccc(Cl)c(S(=O)(=O)NC(=O)c2nc3sc(C(F)(F)F)cn3c2Br)c1 [Example I-3-2]	100%
Cc1c(Cl)ccc(S(=O)(=O)NC(=O)c2cn3cc(C(F)(F)F)sc3n2)c1C [Example I-1-307]	100%
O=C(NS(=O)(=O)c1ccc(Br)c(Cn2cccn2)c1)c1cn2cc(C(F)(F)C(F)(F)F)sc2n1 [Example I-1-293]	100%
